From patent US20250177359A1, “COMPOUNDS FOR USE IN THE TREATMENT OF CANCER AND INFLAMMATORY CONDITIONS” (priority 2022, published 2025) come the findings set out here.

The structures appear in SMILES notation. Where two headings read alike, the source gives them in different places.

Usually IC50 stands for the concentration at which inhibition is half-maximal.

Experiment [1] concerns the target T1, PARP2 (Homo sapiens, UniProt Q9UGN5).
T1 construct: made in house
The experiment is described as follows: biochemical. The format is biochemical. How it is done: All starting materials, reagents, and solvents were purchased from common commercial suppliers and were used as such without further purification. […] Organic solutions were dried over anhydrous Na2SO4 and concentrated with rotary evaporator at low pressure. All the reactions were routinely checked by thin-layer chromatography (TLC) on silica gel 60F254 (Merck) and visualized by using UV and iodine. Flash chromatography separations were carried out on Merck silica gel 60 (mesh 230-400) or by using automated Buchi Reveleris X2-UV with column FP Ecoflex Si 12 g. Yields were of purified products and were not optimized. ^1HNMR spectra were recorded at 400 MHz (Bruker Avance DRX-400), while ^13CNMR spectra were recorded at 101 MHz (Bruker Avance DRX-400). Chemical shifts are given in ppm (δ) relative to TMS. […] Mating constant (J) are reported in Hz. The purity of the tested compounds was evaluated by HPLC analysis using Jasco LC-4000 instrument equipped with a UV-Visible Diode Array Jasco-MD4015 (Jasco Corporation, Tokyo, Japan), and XTerra MS C18 column, 5 μm×4.6 mm×150 mm (Waters Corporation, Massachusetts, USA). Chromatograms were analyzed by ChromNAV2.0 Chromatography Data System software. […] The peak retention time (ret. time) is given in minutes. […] 1-Isobutoxy-4-methoxy-2-nitrobenzene (113). Isobutyl alcohol (0.6 mL, 6.43 mmol) was added, under nitrogen atmosphere at 0° C., to a suspension of NaH (0.26 g, 6.43 mmol) in dry DMF. After 15 minutes, 1-fluoro-4-methoxy-2-nitrobenzene 112 (1 g, 5.84 mmol) was also added and the reaction mixture was stirred at 80° C. for 4 h. […] (2-Isobutoxy-5-methoxyphenyl)amine (114). Zn (1.57 g, 24 mmol) and NH4C1 (2.45 g, 40 mmol) were added to a solution of 113 (0.46 g, 2 mmol) in acetone/H2O (50 mL, ratio 5:1). The reaction mixture was stirred at 60° C. for 3 h and, then, it was filtered over celite. […] N-(2,5-diethoxyphenyl)thiourea (55). […] N-(2-isobutoxy-5-methoxyphenyl)thiourea (115). […] A solution of Br2 (0.2 mL, 3.3 mmol) in CHCl3 (5 mL) was slowly added to a suspension of 45 (0.6 g, 3.3 mmol) in CHCl3 (13 mL), at 0° C. The reaction mixture was stirred at r.t. for 4 h and, then, a 10% solution of Na2SO3 in water was added to the mixture. […] 4,7-Diethoxy-1,3-benzothiazol-2-amine (66). […] 4-Isobutoxy-7-methoxy-1,3-benzothiazol-2-amine (116). […] Hydrazine hydrate (0.23 mL, 4.77 mmol) and CH3COOH (0.12 mL, 2.1 mmol) were added to a suspension of 56 (0.29 g, 1.59 mmol) in ethylene glycol (8 mL), and the reaction mixture was stirred for 24 h at 125° C. […] 6-Ethyl-2-hydrazino-1,3-benzothiazole (69). […] 6-Ispropyl-2-hydrazino-1,3-benzothiazole (70). […] 2-Hydrazino-4,7-dimethoxy-1,3-benzothiazole (73). […] 2-Hydrazino-5,7-dimethoxy-1,3-benzothiazole (75). […] 2-Hydrazino-4,7-Diethoxy-1,3-benzothiazole (77). […] 2-Hydrazino-5-methyl[1,3]thiazolo[5,4-b]pyridine (100). […] A solution of 67 (0.13 g, 0.65 mmol) in formic acid (5 mL) was refluxed for 10 h. The reaction mixture was then poured into ice/water and the pH was neutralized using a saturated solution of NaHCO3.

The target of experiment [2] is T2, TNKS2 (Homo sapiens, UniProt Q9H2K2).
T2 sequence (Q9H2K2 1-1166): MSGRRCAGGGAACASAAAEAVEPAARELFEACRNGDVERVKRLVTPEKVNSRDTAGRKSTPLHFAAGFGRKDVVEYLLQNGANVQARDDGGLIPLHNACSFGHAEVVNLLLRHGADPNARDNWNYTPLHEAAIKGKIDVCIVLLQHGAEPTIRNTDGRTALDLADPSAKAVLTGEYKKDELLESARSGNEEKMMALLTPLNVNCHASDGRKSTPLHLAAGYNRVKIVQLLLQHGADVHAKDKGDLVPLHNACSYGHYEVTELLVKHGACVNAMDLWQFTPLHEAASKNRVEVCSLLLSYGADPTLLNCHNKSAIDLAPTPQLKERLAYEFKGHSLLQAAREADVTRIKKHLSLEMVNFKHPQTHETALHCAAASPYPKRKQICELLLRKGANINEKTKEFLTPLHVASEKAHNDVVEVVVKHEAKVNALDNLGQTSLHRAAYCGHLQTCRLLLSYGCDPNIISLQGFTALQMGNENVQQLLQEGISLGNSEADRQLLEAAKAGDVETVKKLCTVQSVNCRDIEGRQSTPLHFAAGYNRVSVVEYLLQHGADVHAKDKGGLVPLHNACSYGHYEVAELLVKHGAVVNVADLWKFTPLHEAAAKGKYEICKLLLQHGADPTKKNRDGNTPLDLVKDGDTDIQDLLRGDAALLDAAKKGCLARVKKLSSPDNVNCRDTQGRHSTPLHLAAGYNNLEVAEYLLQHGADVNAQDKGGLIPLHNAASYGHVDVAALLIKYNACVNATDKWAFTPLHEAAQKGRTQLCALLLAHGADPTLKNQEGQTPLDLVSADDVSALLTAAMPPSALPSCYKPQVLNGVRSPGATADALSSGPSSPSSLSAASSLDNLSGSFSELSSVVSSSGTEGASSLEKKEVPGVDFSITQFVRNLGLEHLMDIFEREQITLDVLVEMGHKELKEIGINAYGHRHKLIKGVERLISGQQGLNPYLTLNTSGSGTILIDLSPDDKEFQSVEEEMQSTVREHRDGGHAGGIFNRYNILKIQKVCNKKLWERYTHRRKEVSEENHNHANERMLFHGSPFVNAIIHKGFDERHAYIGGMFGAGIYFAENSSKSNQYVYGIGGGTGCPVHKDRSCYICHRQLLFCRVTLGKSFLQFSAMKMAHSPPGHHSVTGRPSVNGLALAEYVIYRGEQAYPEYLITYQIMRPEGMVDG
Description: biochemical.

The mark [3] stands for this setting: read-out: TNKS2 IC50, NAD+ consumption assay, > less than 50% inhibition at highest concentration, >> no inhibition.

T1 sequence (Q9UGN5 whole entry): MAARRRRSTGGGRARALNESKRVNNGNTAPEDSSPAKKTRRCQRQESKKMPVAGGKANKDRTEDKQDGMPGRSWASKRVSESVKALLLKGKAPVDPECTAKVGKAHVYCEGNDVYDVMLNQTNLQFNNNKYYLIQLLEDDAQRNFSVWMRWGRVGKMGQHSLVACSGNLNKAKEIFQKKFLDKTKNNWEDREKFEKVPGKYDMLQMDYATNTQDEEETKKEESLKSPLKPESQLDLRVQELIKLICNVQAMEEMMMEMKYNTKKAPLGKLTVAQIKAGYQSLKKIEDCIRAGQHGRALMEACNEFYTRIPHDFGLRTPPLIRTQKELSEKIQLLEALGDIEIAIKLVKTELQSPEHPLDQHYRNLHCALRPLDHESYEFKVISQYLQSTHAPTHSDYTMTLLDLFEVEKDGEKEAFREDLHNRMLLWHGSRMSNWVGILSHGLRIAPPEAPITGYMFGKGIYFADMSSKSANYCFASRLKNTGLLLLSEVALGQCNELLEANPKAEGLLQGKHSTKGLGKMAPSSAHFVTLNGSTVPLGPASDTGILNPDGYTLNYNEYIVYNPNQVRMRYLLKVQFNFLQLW

For the molecule `Nc1nnc2sc3cc(O)ccc3n12` [Compound 109, 3-Amino[1,2,4]triazolo[3,4-b][1,3]benzothiazol-7-ol], the IC50 is 5 to 10 nM in experiment [1] (NAD+ consumption assay) and about 200 nM in experiment [2].

For the molecule `COc1ccc(OC)c2c1sc1nnc(N)n12` [Compound 28, 5,8-Dimethoxy[1,2,4]triazolo[3,4-b][1,3]benzothiazol-3-amine], the IC50 in experiment [1] (NAD+ consumption assay, > less than 50% inhibition at highest concentration, >> no inhibition) was 10000 nM; in experiment [2] (setting [3]), 10000 nM.

For the molecule `Oc1ccc2c(c1)sc1nncn12` [Compound 10], in experiment [1], half-maximal inhibition (IC50) was put at 44 nM and the “PARP2 pIC50 ± SEM” value was “(7.44 ± 0.12)”. Also, the IC50 in experiment [2] (read-out: TNKS2 IC50, NAD+ consumption assay) came to 370 nM.

In the case of `Cc1ccc2c(c1)sc1nnc(N)n12` [Compound 22, 7-Methyl[1,2,4]triazolo[3,4-b][1,3]benzothiazol-3-amine], in experiment [2] (setting [3]), the IC50 is 5700 nM.
